Test results reported in article PMC6511062, “Preclinical candidate for the treatment of visceral leishmaniasis that acts through proteasome inhibition” (Proceedings of the National Academy of Sciences of the …, 2019).

Experiments:
Host Cell = test: Host cell toxicity in the clinical strain panel; format: cell-based
Text: page 46: Supplementary Tables Table S1. […] MHOM/IN/2002/BHU1 0.6 >50 […] Results from one or two (both values shown) biological replicates. Table S2. […] Data represents % of reduction of parasite burden in drug- treated and vehicle control animals calculated from mean LDU data.

[1] = Pharmacokinetics in male beagle dogs; format: in vivo, dog
Procedure: 5. Intrinsic clearance (CLint) […]
6. Pharmacokinetic studies.
Mouse pharmacokinetic studies were conducted in male CD-1 mice and male beagle dogs. 3 animals per group were used for each study performed.
A dose of 3 mg/kg was administered intravenously, in a bolus form to mice and infused over a 30 min period to dogs. For all the intravenous studies compound were dissolved in 5% DMSO/20% kleptose in saline.
A dose of 10 mg/kg was orally administered by gavage to the two species in a suspension of 1% methylcellulose to investigate oral pharmacokinetics.
Peripheral blood samples were obtained at 5, 15, 30 min, 1, 2, 4, 6 ,8 and 24 h after intravenous administration and 15, 30, 45 min,1, 2, 4, 6, 8 and 24 h after oral administration. Blood was 1/2 diluted with milliQ water and immediately frozen on dry ice until analysis. Quantification was performed by means of LC-MS/MS (API4000), with a lower limit of quantification of 1 ng/mL.
Pharmacokinetic parameters, namely clearance (CL), volume of distribution at steady state (Vss) and bioavailability (F%), were estimated using Phoenix, WinNonLin […]
Data analysis and calculation of pharmacokinetic parameters was performed using Phoenix, WinNonLin Version 6.3.
Following the intravenous administration, the whole blood clearance was calculated

[2] = target: T1, human purified 26S proteasome (Homo sapiens, UniProt P28074+P49721); test: Proteasome activity assay, chymotrypsin-like, purified human 26S; format: biochemical
T1 construct: purchased Boston Biochem

[3] = system: trypsin activity of the L. donovani proteasome; test: Proteasome activity assay, trypsin-like, L. donovani; format: biochemical, Leishmania donovani
Procedure: k. Proteasome activity assays
Compounds were dispensed into black 384-well assay plates (Greiner) by acoustic dispensing (LabCyte ECHO). For potency determinations, eleven-point, one in three dilution curves were generated, with a top concentration of 100 µM. Three proteasome activities were measured using a commercially available indirect enzyme-based luminescent assay kit (Promega) with Suc-LLVY-aminoluciferin, Z-LRR-aminoluciferin and Z-nLPnLD-aminoluciferin used as substrates for chymotrypsin-like, trypsin-like and caspase-like activities, respectively. In addition to proteasome samples: L. donovani and THP1-enriched proteasomes, commercially available human purified 26S proteasome (Boston Biochem) was also assessed. Proteasome final assay concentration were 0.025 mg/ml for L. donovani and THP1-enriched proteasomes and 1 nM for human purified 26S proteasome. Proteasome solution was added to the plates containing the compounds one hour before adding the proteasome substrate solution.
Substrate solution was then added and after 30 min of incubation luminescent signal was measured in an Envision reader (PerkinElmer).
Cultures of L. donovani axenic amastigotes were diluted to either 8 x 106 or 8 x 107 […]
value. […]
value) were used as negative and positive controls, respectively. […] Protein concentrations were determined by standard Bradford assays and Laemmli sample buffer was added to samples. […]

[4] = system: human proteasome catalytic subunits (THP-1 extracts); test: Activity-based probe (UbiQ-018) labelling of THP-1 proteasome; format: binding; conditions: human THP-1 extracts, 100 µM
Procedure: Activity-Based Probe Labelling of THP1 and L. donovani proteasome
Proteasome enriched fractions from THP1 (20 µg), L. donovani (10 µg) and L. donovani
µM for 1 h. Proteasome enriched fractions were also incubated with DMSO as control.
For all proteasome labelling experiments, the active-site probe Me4BodipyFL-Ahx3Leu3VS (UbiQ-018) was used at final concentration of 500 nM in sucrose buffer (50 mM Tris buffer pH 7.5, 5 mM magnesium chloride, 1 mM EDTA, 50 mM NaCl, 250 mM sucrose, 2 mM ATP, 1 mM DTT). Proteasome enriched fractions treated with
DMSO or test compounds, were incubated with the probe for 2h at RT. Samples were then denatured by addition of Laemmli sample buffer, heated to 95°C for 10 min and separated by electrophoresis on a 15% SDS-PAGE acrylamide gel. Following separation, gels were scanned in the fluorescein channel of a ChemiDoc reader (λ excitation/emission = 480/530 nm). Fluorescent proteins were excised and MALDI– TOF analysis carried out by the FingerPrints Proteomics service at the University of

TA1537 = test: Ames test, strain TA1537
Procedure: (§1) oxidative metabolism system (S9-mix). The maximum concentration tested and […]
(§2) Compound 7a was tested in a bacterial mutation screening assay (Ames test) with Salmonella typhimurium TA1535, TA1537, TA98, TA100 and Escherichia coli WP2uvrA(pKM101) in the presence and absence of an exogenous mammalian […]
(§3) The bacterial mutation screening assay was a plate incorporation test carried out as previously described15 and according to current methodology. […]

WP2 uvrA (pKM101) = test: Ames test, strain WP2 uvrA (pKM101)
Procedure: as §1, §2, §3

[5] = male, beagle, whole blood, dog, 3 mg/kg iv 0.5 h infusion
[6] = with S9-mix, dose level 50 per plate
[7] = with S9-mix, dose level 150 per plate
[8] = with S9-mix, dose level 500 per plate
[9] = with S9-mix, dose level 1500 per plate
[10] = with S9-mix, dose level 2500 per plate
[11] = with S9-mix, dose level 5000 per plate
[12] = without S9-mix, dose level 50 per plate
[13] = without S9-mix, dose level 150 per plate
[14] = without S9-mix, dose level 500 per plate
[15] = without S9-mix, dose level 1500 per plate
[16] = without S9-mix, dose level 2500 per plate
[17] = without S9-mix, dose level 5000 per plate

In the case of `O=C(Nc1ccc(F)c(-c2ccn3c(N4CCOCC4)cnc3n2)c1)N1CCCC1` [Compound 8], the EC50 (Host Cell; strain MHOM/ET/67/HU3 (LV9)) is reported as > 50 µM, the EC50 (Host Cell; strain MHOM/IN/80/DD8) is reported as > 50 µM and the EC50 (Host Cell; strain MHOM/IN/2002/BHU1) is reported as > 50 µM. For the same compound, the EC50 (Host Cell; strain MHOM/MA/67/ITMAP263) was > 50 µM, the EC50 (Host Cell; strain SUKA001) was > 50 µM and the blood clearance ([1]; dog) was 30 mL/min per kilogram. The “Cl (%LBF)” value ([1]; dog, 3 mg/kg iv) was 53%, the Vss ([1]; dog, 3 mg/kg iv 0.5 h infusion, 3 mg/kg) was 1.3 L/kg and the Vd ([1]; male, beagle, dog, whole blood, iv, 3 mg/kg, dog, 3 mg/kg iv 0.5 h infusion, read-out: Vss) was 1.34 ± 0.381 L/kg. For the same compound, the clearance [1, 5] was 29.6 ± 6.06 mL/min/kg, the half-life [1, 5] was 31.2 ± 4.8 min and the bioavailability ([1]; whole blood, Beagle male dog, 10 mg/kg po, read-out: F (oral bioavailability)) was 46%. For the same compound, the IC50 [2] was 13 ± 0.88 µM, the “effect on trypsin activity” value [3] was “no effect” and the “UbiQ-018 labelling of proteasome subunits” value [4] was “no effect”. For the same compound, the “Mean revertants per plate” value (TA1537; [6]) was 18.0, the “Mean revertants per plate” value (TA1537; [7]) was 14.5 and the “Mean revertants per plate” value (TA1537; [8]) was 21.0. The “Mean revertants per plate” value (TA1537; [9]) was 11.0, the “Mean revertants per plate” value (TA1537; [10]) was 13.5 and the “Mean revertants per plate” value (TA1537; [11]) was 8.5. For the same compound, the “Mean revertants per plate” value (TA1537; [12]) was 14.0, the “Mean revertants per plate” value (TA1537; [13]) was 9.5 and the “Mean revertants per plate” value (TA1537; [14]) was 16.0. The “Mean revertants per plate” value (TA1537; [15]) was 12.5, the “Mean revertants per plate” value (TA1537; [16]) was 14.5 and the “Mean revertants per plate” value (TA1537; [17]) was 6.5. The “Mean revertants per plate” value (WP2 uvrA (pKM101); [6]) was 150.5, the “Mean revertants per plate” value (WP2 uvrA (pKM101); [7]) was 164.5 and the “Mean revertants per plate” value (WP2 uvrA (pKM101); [8]) was 143.5. The “Mean revertants per plate” value (WP2 uvrA (pKM101); [9]) was 139.0, the “Mean revertants per plate” value (WP2 uvrA (pKM101); [10]) was 130.5 and the “Mean revertants per plate” value (WP2 uvrA (pKM101); [11]) was 133.5. For the same compound, the “Mean revertants per plate” value (WP2 uvrA (pKM101); [12]) was 90.0, the “Mean revertants per plate” value (WP2 uvrA (pKM101); [13]) was 84.5 and the “Mean revertants per plate” value (WP2 uvrA (pKM101); [14]) was 80.5. The “Mean revertants per plate” value (WP2 uvrA (pKM101); [15]) was 87.5, the “Mean revertants per plate” value (WP2 uvrA (pKM101); [16]) was 91.5 and the “Mean revertants per plate” value (WP2 uvrA (pKM101); [17]) was 82.0.
